The numbers were not newly measured in patent US8349888B2, “Phytoestrogenic isoflavone compositions, their preparation and use thereof for protection against and treatment of radiation injury” (priority 2000, dated 2013), which cites them from elsewhere.

The conditions of data set [1]: radioprotective doses.
The test system of data set [2] is mice.

With `C[C@]12CC[C@@H]3c4ccc(O)cc4CC[C@H]3[C@@H]1CC[C@@H]2O` [17-beta-estradiol], the behavioral toxicity entry in data set [1] is reported as “behaviorally toxic”.

For the compound `O=c1cc(-c2ccc(O)cc2)oc2c([C@@H]3O[C@H](CO)[C@@H](O)[C@H](O)[C@H]3O)c(O)c([C@@H]3O[C@H](CO)[C@@H](O)[C@H](O)[C@H]3O)c(O)c12` [vicenin], the “efficacy if given after radiation” value in data set [2] is given as “not effective at all”.

`O=c1cc(-c2ccc(O)c(O)c2)oc2c([C@@H]3O[C@H](CO)[C@@H](O)[C@H](O)[C@H]3O)c(O)cc(O)c12` [orientin]: in data set [2], the “efficacy if given after radiation” value is reported as “not effective at all”.
